Experimental data as given in article PMC5343011, “Phenol-Soluble Modulin α Peptide Toxins from Aggressive Staphylococcus aureus Induce Rapid Formation of Neutrophil Extracellular Traps through a Reactive Oxygen Species-Independent Pathway” (Frontiers in Immunology, 2017).

Columns and labels:
[1] = test system: Formyl peptide receptor (FPR) 1 / FPR2; conditions: receptor through which the peptide activates neutrophils; dash = inactive; cited from earlier work
Source text: Table 1 Peptide sequences and receptor preferences of PSMα2. | column: Receptor preference^a

[2] = test system: neutrophils; test: Plasma membrane disruption by lactate dehydrogenase (LDH) release; format: cell-based, human; conditions: 10 min, 37°C, relative to Triton X-100-treated samples, two independent experiments in triplicates
Description: Neutrophils (2 × 10^6 cells/ml) were incubated with PSMα2 or hexadecyltrimethylammonium bromide (CTAB, Sigma) for 10 min at 37°C. LDH was measured in the supernatants with cytotoxicity detection kit (LDH, Roche) as described in Ref. ([25]).

[3] = test system: neutrophils; test: Sytox Green DNA release / NET formation; format: cell-based, human
Description: Peripheral blood neutrophils were isolated from 1-day-old buffy coats from healthy blood donors or from peripheral blood from patients and healthy controls. Neutrophil separation was performed as first described by Boyum ([23]). Briefly, after dextran, sedimentation at 1 × g the suspension was centrifuged on Ficoll-Paque, and the remaining erythrocytes were lysed by hypotonic treatment. The neutrophils were then washed in Krebs Ringer phosphate buffer (KRG) and finally resuspended in KRG supplemented with Ca^2+ (1 mM) and kept on melting ice until used. Buffy coats were obtained from the Sahlgrenska University Hospital blood bank after deidentification, and according to the Swedish legislation section code 4§ 3 p SFS2003:460, no informed consent is needed. Peripheral blood from one MPO-deficient individual, one patient with Papillon-Lefèvre syndrome, and healthy controls were obtained after written informed consent, and the study was approved by the Regional Ethical Review Board in Gothenburg, Sweden.
Cells (5 × 10^4 cells/well) in RPMI (without phenol red) and the Sytox Green DNA stain (1.25 μM; Molecular Probes) were added to black 96-well plates and incubated at 37°C and 5% CO2 ([5]). Inhibitors, PBP10 (CASLO Laboratory) or diphenyleneiodonium chloride (DPI; Sigma-Aldrich), were preincubated with cells for 10 min at 37°C and 5% CO2 prior to stimulation. Sytox Green fluorescence was measured at indicated time points at 485/535 nm in a Mithras LB940 (Berthold Technologies) or in a CLARIOstar plate reader (BMG Labtech).

[4] = test system: A375 melanoma cells; test: Microscopic visualization of melanoma cells (DAPI); format: cell-based, human; conditions: PSMα2 or PSMα3 2.5 μM for 1 h, PMA 50 nM for 3 h, three independent experiments
Description: The human melanoma cell line A375 was a kind gift from Professor Jonas A. Nilsson (Sahlgrenska Cancer Center, University of Gothenburg, Sweden). The cells were cultured in DMEM with 10% FCS, 100 U/ml penicillin, and 100 μg/ml streptomycin at 37°C and 5% CO2. Before being used experimentally, the cells were detached from the flasks’ surface by incubation with 0.25% trypsin in 37°C for 10 min followed by washing and resuspension in RPMI culture media.
(§1) Neutrophils or human A375 melanoma cells (2.5 × 10^5 cells/well) were suspended in RPMI and added to poly-lysine-coated coverslips. After stimulation with PMA (50 nM; Sigma-Aldrich) or PSMα (indicated concentrations), the cells were incubated at 37°C in the presence of 5% CO2 or at 4°C for indicated time. To visualize NETs, samples were fixed in 4% paraformaldehyde for 30 min at room temperature and stained with antibodies against MPO (DAKO), NE (Calbiochem), or Histone-1 (Acris) followed by secondary antibody staining. Finally, the coverslips were incubated with DAPI (1 μg/ml) for 5 min and then mounted in ProLong Gold antifade (Molecular Probes). […]

[5] = test system: neutrophils; test: Nuclear membrane integrity (SUN2 staining, confocal microscopy); format: cell-based, human; conditions: SUN2 and DNA staining, three independent experiments
Description: as §1, with “Probes). For nuclear morphology experiments, neutrophils were incubated with PSMα2 for 10 min or with PMA for 30 min or 2 h, the cells were fixed on ice with 4% paraformaldehyde, permeabilized with cold acetone and methanol (1:1) for 5 min, and stained with SUN2 antibody (Abcam) followed by secondary antibody staining. To visualize microbes in the NETs, we used green fluorescent protein (GFP)-expressing Candida albicans, strain CAI4 containing a C. albicans-specific pENO1-GFP-CyC1t plasmid ([26]), or S. aureus, strain RN4220 containing the pCN-GFP plasmid that was a kind gift from Dr. Maria Lerm (Linköping University, Sweden).” for “Probes).”

[6] = test system: neutrophils; conditions: cited from earlier work
Source text: Further, we have shown that enzymatic conversion of ROS by MPO inside granules is a prerequisite for PMA-induced NET formation ([10]). We thus investigated whether MPO was required for PSMα-induced NET formation by using neutrophils from a completely MPO-deficient donor [previously described in Ref. ([10])] that was sampled at two occasions (with nearly identical results). Neutrophils fro ...

f-MGIIA [1–5, shorter PSMα2 variant, amino acids 1–5]
Receptor preference [1]: Formyl peptide receptor (FPR) 1

f-MGIIAGIIKFIKGLIE [1–16, shorter PSMα2 variant, amino acids 1–16]
Receptor preference [1]: FPR2

f-MGIIAGIIKFIK [1–12, shorter PSMα2 variant, amino acids 1–12]
Receptor preference [1]: FPR1/FPR2

CCCCCCCCCCCCCCCC[N+](C)(C)C [CTAB, hexadecyltrimethylammonium bromide]
LDH release [2]: close to maximal | NET formation (Sytox Green fluorescence) after detergent treatment ([3]; 10 min, two independent experiments in triplicates): did not cause NET formation

CCCCCCCCCCCCCC(=O)O[C@@H]1[C@@H](C)[C@@]2(O)[C@@H](C=C(CO)C[C@]3(O)C(=O)C(C)=C[C@@H]23)[C@@H]2C(C)(C)[C@]12OC(C)=O [PMA, phorbol myristate acetate]
Extracellular DNA release from melanoma cells [4]: did not induce any DNA expulsion | Stimulation time at which disruption of nuclear membranes was first observed [5]: 2 h | Time to increase in Sytox green fluorescence ([3]; PMA 50 nM, 37°C, three independent experiments): 3 h | NET formation by neutrophils from a completely MPO-deficient donor in response to PMA [6]: unable to form NETs

f-MGIIAGIIKF [1–10, shorter PSMα2 variant, amino acids 1–10]
Receptor preference [1]: FPR1

c1ccc2c(c1)[I+]c1ccccc1-2 [DPI, diphenyleneiodonium chloride]
Effect of NADPH oxidase inhibitor on PMA-induced NET formation ([3]; PMA 50 nM, DPI 10 μM, three independent experiments): potently inhibited | Effect of NADPH oxidase inhibitor on PSMα-induced NETs ([3]; PSMα2 2.5 μM, DPI 10 μM, three independent experiments): without effect
